Patent publication US20060287273A1, “Methods and reagents for inhibiting cell proliferation” (priority 2005, published 2006)

System: MDA-MB-435S cells
Experiment: TUNEL assay analyzed by FACS (apoptosis)
Type: cell-based, human
Details: 48 hours post-transfection; staurosporine 1 uM; versus control siRNA
Procedure: To examine this possibility, we utilized the TUNEL assay, which measures the appearance of free DNA ends that are the result of DNA fragmentation that occurs in the latter stages of apoptosis. MDA-MB-435S cells in 6 well dishes were transfected with the corresponding siRNA or treated with 1 uM staurosporine. 48 hours post-transfection, any detached cells were combined with cells detached using trypsin and the cells were washed, fixed with paraformaldehyde, subjected to TUNEL assay, and analyzed by FACS. […] Cells to be assayed were trypsinized, washed twice with PBS, followed by fixation for 20 min. in 1.5% paraformaldehyde in PBS at 4° C. with gentle mixing. The cells were then washed twice with PBS, suspended in 70% ethanol at 4° C., and stored at −20° C. until assayed. When assayed, the cells were washed twice with PBS and then resuspended in 50 μl of Tunel assay buffer consisting of 100 mM potassium cacodylate (pH 7.2), 2 mM CoCl2, 0.2 mM dithiotheitol, 3.3 nM fluorescein-conjugated dUTP, 13 nM DATP and 11 units of terminal deoxynucleotidyl transferase for 90 minutes at 37° C. The cells were then washed twice with PBS and analyzed by FACS sorting.

Compound: CN[C@@H]1C[C@H]2O[C@@](C)([C@@H]1OC)n1c3ccccc3c3c4c(c5c6ccccc6n2c5c31)C(=O)NC4 [Staurosporine]
- apoptosis, incorporation of fluorescein-labeled dUTP: most dramatic increase in apoptotic cells
